Laboratory results: article PMC8396344, “Palmitoylation of Prolactin-Releasing Peptide Increased Affinity for and Activation of the GPR10, NPFF-R2 and NPFF-R1 Receptors: In Vitro Study” (International Journal of Molecular Sciences, 2021)
No end group written: not given here.

What was measured:
NPFF-R2 [1] = target: T1, NPFF-R2 (Homo sapiens, UniProt Q9Y5X5); test: Competitive binding, [^125I]-1DMe, membranes of CHO-K1 cells with NPFF-R2
T1 construct: host or cells: CHO-K1 (AequoScreen, co-expressing aequorin)
T1 sequence (Q9Y5X5 whole entry): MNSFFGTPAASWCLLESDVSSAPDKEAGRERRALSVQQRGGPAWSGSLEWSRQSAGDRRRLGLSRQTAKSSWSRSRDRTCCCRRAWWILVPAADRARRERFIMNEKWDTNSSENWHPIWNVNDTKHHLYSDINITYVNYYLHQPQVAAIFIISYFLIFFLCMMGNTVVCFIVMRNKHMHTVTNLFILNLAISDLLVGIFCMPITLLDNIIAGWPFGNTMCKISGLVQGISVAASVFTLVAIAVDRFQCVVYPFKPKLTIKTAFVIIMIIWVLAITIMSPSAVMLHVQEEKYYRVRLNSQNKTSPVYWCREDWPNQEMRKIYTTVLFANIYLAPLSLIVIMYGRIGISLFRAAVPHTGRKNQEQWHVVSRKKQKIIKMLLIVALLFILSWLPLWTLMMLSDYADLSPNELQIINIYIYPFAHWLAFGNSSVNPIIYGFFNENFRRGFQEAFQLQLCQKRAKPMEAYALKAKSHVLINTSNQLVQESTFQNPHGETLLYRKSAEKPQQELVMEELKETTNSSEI
Procedure: Pellets of CHO-K1 cells containing NPFF-R2, NPFF-R1 and KOR receptors were homogenized in ice-cold homogenizing buffer (20 mM HEPES pH 7.1, 5 mM MgCl2, 0.7 mM bacitracin) with a DIAX 100 Homogenizer (Heidolph Instruments, Schwabach, Germany) and centrifuged in an ultracentrifuge (Beckman Coulter, Fullerton, CA, USA) at 26,000× g for 15 min at 4 °C. The pellets were homogenized in ice-cold homogenization buffer, and the previous steps were repeated 2 more times. After the third centrifugation, pellets were resuspended in ice-cold storage buffer (50 mM Tris-Cl pH 7.4, 0.5 mM EDTA, 10 mM MgCl2, 10% sucrose), and aliquots were stored at −80 °C. The concentration of isolated membrane proteins was determined by a PierceTM BCA Protein Assay Kit (Pierce, Rockford, IL, USA). […]
(§1) Experiments were carried out in duplicate at least three times, and Ki was calculated using the Cheng-Prusoff equation.
Data were analyzed by GraphPad Software (San Diego, CA, USA) and are presented as the means ± SEM. The saturation and competitive binding experiments were analyzed according to [46] using the Cheng-Prusoff equation [33]. […] From saturation binding experiments, the dissociation constant (Kd) and number of binding sites/cell (Bmax) were calculated. Inhibition constants (Ki) were calculated from IC50 values, Kd and the concentration of radioligands.

NPFF-R2 [2] = target: T1, NPFF-R2; test: Intracellular Ca^2+ mobilization, AequoScreen CHO-K1 cells with NPFF-R2; type: cell-based; details: CHO-K1 NPFF-R2 aequorin cells; peptides 10^−12 to 10^−5 M; mean ± SEM, three times in duplicates; read-out: EC50 intracellular Ca^2+ release, NPFF-R2
Procedure: The intracellular Ca^2+ level was measured using the AequoScreen stable CHO-K1 cell line containing NPFF-R2 purchased from Perkin Elmer according to the manufacturer’s protocol. Cells at 80–90% confluence cultured in media without selective antibiotics were detached (PBS pH 7.4 + 0.5 mM EDTA) and centrifuged. Cells resuspended in phenol red-free DMEM with 0.1% protease-free BSA and 5 µM coelenterazine h (Thermo Fisher Scientific Inc. Brand) were seeded at 50,000 cells/well in 96-well plates and incubated in the dark at RT with gentle agitation for 4 h. Peptides were tested at concentrations from 10^−12 to 10^−5 M. Luminescent light emission was recorded using a FlexStation 3 plate reader.
(§2) Ca^2+ release assay data are shown as the percentage of maximal response, and the results were analyzed by nonlinear regression as log agonist versus response using GraphPad software. Data are representative of at least three experiments, each performed in duplicate.

GHSR = target: T2, GHSR (Homo sapiens, UniProt Q92847); test: Beta-lactamase reporter gene assay (FRET), GHSR; type: cell-based
T2 construct: host or cells: U2OS
T2 sequence (Q92847 whole entry): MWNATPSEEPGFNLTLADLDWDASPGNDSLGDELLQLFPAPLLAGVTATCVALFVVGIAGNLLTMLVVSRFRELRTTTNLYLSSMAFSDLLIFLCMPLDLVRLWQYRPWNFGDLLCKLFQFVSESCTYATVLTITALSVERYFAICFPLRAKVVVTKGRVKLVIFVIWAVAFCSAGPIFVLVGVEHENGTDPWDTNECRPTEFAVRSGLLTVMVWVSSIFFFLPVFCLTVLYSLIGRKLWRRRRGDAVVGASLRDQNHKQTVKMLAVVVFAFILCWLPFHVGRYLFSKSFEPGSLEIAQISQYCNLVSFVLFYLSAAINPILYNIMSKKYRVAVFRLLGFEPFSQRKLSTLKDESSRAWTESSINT

GPR10 [3] = target: T3, GPR10 (Homo sapiens, UniProt P49683); test: Competitive binding, [^125I]-PrRP31, CHO-K1 cells expressing GPR10
T3 construct: host or cells: CHO-K1
T3 sequence (P49683 1-370): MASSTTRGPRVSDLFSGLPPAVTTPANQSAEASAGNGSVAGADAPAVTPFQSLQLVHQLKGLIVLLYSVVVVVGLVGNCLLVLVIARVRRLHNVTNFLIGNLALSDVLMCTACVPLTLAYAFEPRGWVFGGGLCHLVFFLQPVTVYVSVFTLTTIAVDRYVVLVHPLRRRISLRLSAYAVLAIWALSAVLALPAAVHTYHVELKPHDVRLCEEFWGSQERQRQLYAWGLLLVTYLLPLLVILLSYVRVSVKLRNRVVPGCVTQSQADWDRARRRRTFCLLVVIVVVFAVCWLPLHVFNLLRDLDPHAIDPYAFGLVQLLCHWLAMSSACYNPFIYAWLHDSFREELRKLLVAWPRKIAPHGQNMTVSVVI

NPFF-R1 = target: T4, NPFF-R1 (Homo sapiens, UniProt Q9GZQ6); test: Competitive and saturation binding, [^125I]-1DMe, membranes of CHO-K1 cells with NPFF-R1
T4 construct: host or cells: CHO-K1 (isolated membranes)
T4 sequence (Q9GZQ6 whole entry): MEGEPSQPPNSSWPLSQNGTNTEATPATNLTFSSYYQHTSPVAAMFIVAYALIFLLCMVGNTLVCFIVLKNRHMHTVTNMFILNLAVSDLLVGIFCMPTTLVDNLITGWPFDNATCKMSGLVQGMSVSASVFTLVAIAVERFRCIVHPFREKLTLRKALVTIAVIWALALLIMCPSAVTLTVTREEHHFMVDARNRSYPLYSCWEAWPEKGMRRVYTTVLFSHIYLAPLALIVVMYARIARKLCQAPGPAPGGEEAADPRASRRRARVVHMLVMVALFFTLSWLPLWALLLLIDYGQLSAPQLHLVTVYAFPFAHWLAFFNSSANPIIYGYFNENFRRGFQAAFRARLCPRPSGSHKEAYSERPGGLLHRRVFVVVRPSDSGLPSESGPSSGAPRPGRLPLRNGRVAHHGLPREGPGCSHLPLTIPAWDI
Procedure: as §1
Data were analyzed by GraphPad Software (San Diego, CA, USA) and are presented as the means ± SEM. The saturation and competitive binding experiments were analyzed according to [46] using the Cheng-Prusoff equation [33]. The competitive binding curves were plotted compared to the best fit for single-binding site models, and half maximal inhibitory concentration (IC50) values were obtained from nonlinear regression analysis. From saturation binding experiments, the dissociation constant (Kd) and number of binding sites/cell (Bmax) were calculated. Inhibition constants (Ki) were calculated from IC50 values, Kd and the concentration of radioligands.

GPR10 [4] = target: T3, GPR10; test: Beta-lactamase reporter gene assay (FRET), GPR10; type: cell-based; details: β-lactamase assay, agonist mode, CHO-K1 cells; mean ± SEM, 2–3 independent experiments in duplicates
KOR = target: T5, KOR (Homo sapiens, UniProt P41145); test: cell-based
T5 construct: host or cells: CHO-K1
T5 sequence (P41145 whole entry): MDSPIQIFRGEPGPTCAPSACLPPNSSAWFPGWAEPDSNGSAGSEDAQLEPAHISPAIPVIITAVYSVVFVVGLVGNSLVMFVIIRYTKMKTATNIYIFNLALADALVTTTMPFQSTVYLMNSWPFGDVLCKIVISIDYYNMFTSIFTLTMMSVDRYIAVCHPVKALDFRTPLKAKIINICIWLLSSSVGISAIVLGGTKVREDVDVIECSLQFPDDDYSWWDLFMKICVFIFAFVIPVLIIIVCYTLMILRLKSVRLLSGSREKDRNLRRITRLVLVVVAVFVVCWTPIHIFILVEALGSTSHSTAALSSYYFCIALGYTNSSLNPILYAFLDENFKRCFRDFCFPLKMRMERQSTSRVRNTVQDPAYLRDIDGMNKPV

GPR10 [5] = target: T3, GPR10; test: Intracellular Ca^2+ mobilization, Fura-2, CHO-K1 cells expressing GPR10; type: cell-based; details: Fura 2 dye; peptides 10^−12 to 10^−5 M; repeated two times in duplicates
Procedure: Measuring the intracellular Ca^2+ level in CHO-K1 cells containing GRP10 was performed using the calcium-sensitive dye Fura-2 according to the manufacturer’s protocol (Molecular Devices, Sunnyvale, CA, USA). The day before the experiment, cells were seeded at 40,000 cells/well in 96-well plates in growth media and kept at 37 °C in an incubator with 5% CO2 overnight. Peptides were tested at concentrations from 10^−12 to 10^−5 M. Fura-2 fluorescent dye was detected using a FlexStation 3 fluorometric plate reader (Molecular Devices), and excitation was measured at 340 nm and 380 nm and emission at 510 nm.
as §2

“SRAHQHSMETRTPDINPAWYTGRGIRPVGRF-NH2 [PrRP31, prolactin-releasing peptide 31, reference compound]” was tested, and the Ki (NPFF-R2 [1]) was 26.7 ± 9.01 nM, the EC50 (NPFF-R2 [2]) was 89.33 ± 0.84 nM and the EC50 (GHSR) was over 10000 nM. The Ki (GPR10 [3]) was 4.58 ± 0.66 nM, the Ki (NPFF-R1) was 40.4 ± 4.2 nM and the EC50 (GPR10 [4]) was 0.53 ± 0.0705 nM. The EC50 (KOR) was over 10000 nM.
`CCCCCCCCCCCCCCCC(=O)N[C@@H](CO)C(=O)N[C@@H](CCCNC(=N)N)C(=O)N[C@H](C(=O)N[C@@H](Cc1c[nH]cn1)C(=O)N[C@@H](CCCNC(=N)N)C(=O)N[C@@H](Cc1c[nH]cn1)C(=O)N[C@@H](CO)C(=O)N[C@@H](CCSC)C(=O)N[C@@H](CCC(=O)O)C(=O)N[C@H](C(=O)N[C@@H](CCCNC(=N)N)C(=O)N[C@H](C(=O)N1CCC[C@H]1C(=O)N[C@@H](CC(=O)O)C(=O)N[C@H](C(=O)N[C@@H](CC(N)=O)C(=O)N1CCC[C@H]1C(=O)N[C@@H](C)C(=O)N[C@@H](Cc1c[nH]c2ccccc12)C(=O)N[C@@H](Cc1ccc(O)cc1)C(=O)N[C@@H](C)C(=O)N[C@@H](CO)C(=O)N[C@@H](CCCNC(=N)N)C(=O)NCC(=O)N[C@H](C(=O)N[C@@H](CCCNC(=N)N)C(=O)N1CCC[C@H]1C(=O)N[C@H](C(=O)NCC(=O)N[C@@H](CCCNC(=N)N)C(=O)N[C@@H](Cc1ccccc1)C(N)=O)C(C)C)[C@@H](C)CC)[C@@H](C)CC)[C@@H](C)O)[C@@H](C)CC)[C@@H](C)O` [Palm-PrRP31] gave a Ki (NPFF-R2 [1]) of 0.77 ± 0.19 nM, an EC50 (NPFF-R2 [2]) of 14.2 ± 1.52 nM and a Ki (NPFF-R1) of 0.78 ± 0.11 nM. For the same compound, the “Ca^2+ mobilization in CHO-K1 cells expressing GPR10” value (GPR10 [5]) was “stimulated Ca^2+ mobilization” and the EC50 (KOR) was over 10000 nM.
